Test results taken from patent US9708318B2, “Bicyclic heterocycles as FGFR4 inhibitors” (Incyte Corporation, priority 2015, dated 2017).
Like-named read-outs stand apart in the source and are kept apart here.

Experiments:
FGFR2 = FGFR2 (Homo sapiens (Human), UniProt P21802); test: FGFR Enzymatic Assay (FRET peptide phosphorylation), FGFR2; format: biochemical
Procedure: (§1) The inhibitor potency of the exemplified compounds was measured in an enzyme assay that measures peptide phosphorylation using FRET measurements to detect product formation. Inhibitors were serially diluted in DMSO and a volume of 0.5 μL was transferred to the wells of a 384-well plate.
(§2) The enzymes were purchased from Millipore or Invitrogen.
(§3) GraphPad prism3 was used to analyze the data.

FGFR3 enzyme = FGFR3 enzyme (Homo sapiens (Human), UniProt P22607); test: FGFR Enzymatic Assay (FRET peptide phosphorylation), FGFR3; format: biochemical; details: for FGFR1/FGFR3 IC50 ratio / FGFR4/FGFR3 IC50 ratio: FGFR3 selectivity; for IC50: read-out: FGFR3 IC50
Chain of FGFR3 enzyme (P22607 23-806): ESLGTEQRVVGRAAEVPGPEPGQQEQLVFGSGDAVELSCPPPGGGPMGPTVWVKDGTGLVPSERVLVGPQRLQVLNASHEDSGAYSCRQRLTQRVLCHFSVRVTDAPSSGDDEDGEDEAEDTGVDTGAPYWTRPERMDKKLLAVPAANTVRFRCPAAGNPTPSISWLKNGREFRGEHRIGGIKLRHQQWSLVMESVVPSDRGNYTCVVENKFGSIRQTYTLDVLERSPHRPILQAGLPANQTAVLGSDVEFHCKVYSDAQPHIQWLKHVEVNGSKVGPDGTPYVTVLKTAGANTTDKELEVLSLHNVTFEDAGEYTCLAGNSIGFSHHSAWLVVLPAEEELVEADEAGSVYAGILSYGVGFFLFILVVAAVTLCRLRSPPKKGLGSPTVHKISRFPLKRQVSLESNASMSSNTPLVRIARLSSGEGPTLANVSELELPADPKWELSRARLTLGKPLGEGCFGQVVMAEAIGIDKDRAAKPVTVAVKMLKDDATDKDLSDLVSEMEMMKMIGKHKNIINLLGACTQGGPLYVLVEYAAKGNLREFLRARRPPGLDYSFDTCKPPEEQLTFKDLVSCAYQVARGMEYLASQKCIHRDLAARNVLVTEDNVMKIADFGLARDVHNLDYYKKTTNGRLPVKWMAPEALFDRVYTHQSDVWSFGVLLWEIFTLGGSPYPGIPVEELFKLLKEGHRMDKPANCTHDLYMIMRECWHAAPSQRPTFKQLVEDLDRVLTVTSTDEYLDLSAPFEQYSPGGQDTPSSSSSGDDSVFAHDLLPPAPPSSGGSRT
Procedure: as §1, §3

FGFR4 = FGFR4 (Homo sapiens (Human), UniProt P22455); test: FGFR Enzymatic Assay (FRET peptide phosphorylation), FGFR4; format: biochemical; details: for FGFR1/FGFR4 IC50 ratio / FGFR2/FGFR4 IC50 ratio / FGFR3/FGFR4 IC50 ratio: FGFR4 selectivity
Chain of FGFR4 (P22455 22-802): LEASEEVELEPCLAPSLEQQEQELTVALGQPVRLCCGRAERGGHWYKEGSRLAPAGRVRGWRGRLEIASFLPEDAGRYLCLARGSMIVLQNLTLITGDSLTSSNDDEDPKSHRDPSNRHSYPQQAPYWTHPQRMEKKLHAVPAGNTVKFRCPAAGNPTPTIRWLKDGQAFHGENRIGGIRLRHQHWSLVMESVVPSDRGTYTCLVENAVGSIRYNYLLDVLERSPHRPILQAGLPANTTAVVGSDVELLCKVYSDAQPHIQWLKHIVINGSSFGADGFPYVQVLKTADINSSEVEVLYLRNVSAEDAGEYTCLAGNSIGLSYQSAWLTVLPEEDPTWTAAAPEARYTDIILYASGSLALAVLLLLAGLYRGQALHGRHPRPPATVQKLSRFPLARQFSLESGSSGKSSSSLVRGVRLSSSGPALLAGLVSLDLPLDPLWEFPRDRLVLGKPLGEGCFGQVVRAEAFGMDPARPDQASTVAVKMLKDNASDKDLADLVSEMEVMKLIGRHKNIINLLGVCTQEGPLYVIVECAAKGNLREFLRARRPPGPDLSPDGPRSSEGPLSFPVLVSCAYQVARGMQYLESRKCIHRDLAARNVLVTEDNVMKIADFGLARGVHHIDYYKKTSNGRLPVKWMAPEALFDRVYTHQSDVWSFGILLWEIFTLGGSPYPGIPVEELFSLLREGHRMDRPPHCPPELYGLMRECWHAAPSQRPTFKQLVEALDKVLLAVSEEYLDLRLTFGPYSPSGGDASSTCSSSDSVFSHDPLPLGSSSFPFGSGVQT
Procedure: as §1, §2, §3

FGFR1 = FGFR1 (Homo sapiens (Human), UniProt P11362); test: FGFR Enzymatic Assay (FRET peptide phosphorylation), FGFR1
Chain of FGFR1 (P11362 22-822): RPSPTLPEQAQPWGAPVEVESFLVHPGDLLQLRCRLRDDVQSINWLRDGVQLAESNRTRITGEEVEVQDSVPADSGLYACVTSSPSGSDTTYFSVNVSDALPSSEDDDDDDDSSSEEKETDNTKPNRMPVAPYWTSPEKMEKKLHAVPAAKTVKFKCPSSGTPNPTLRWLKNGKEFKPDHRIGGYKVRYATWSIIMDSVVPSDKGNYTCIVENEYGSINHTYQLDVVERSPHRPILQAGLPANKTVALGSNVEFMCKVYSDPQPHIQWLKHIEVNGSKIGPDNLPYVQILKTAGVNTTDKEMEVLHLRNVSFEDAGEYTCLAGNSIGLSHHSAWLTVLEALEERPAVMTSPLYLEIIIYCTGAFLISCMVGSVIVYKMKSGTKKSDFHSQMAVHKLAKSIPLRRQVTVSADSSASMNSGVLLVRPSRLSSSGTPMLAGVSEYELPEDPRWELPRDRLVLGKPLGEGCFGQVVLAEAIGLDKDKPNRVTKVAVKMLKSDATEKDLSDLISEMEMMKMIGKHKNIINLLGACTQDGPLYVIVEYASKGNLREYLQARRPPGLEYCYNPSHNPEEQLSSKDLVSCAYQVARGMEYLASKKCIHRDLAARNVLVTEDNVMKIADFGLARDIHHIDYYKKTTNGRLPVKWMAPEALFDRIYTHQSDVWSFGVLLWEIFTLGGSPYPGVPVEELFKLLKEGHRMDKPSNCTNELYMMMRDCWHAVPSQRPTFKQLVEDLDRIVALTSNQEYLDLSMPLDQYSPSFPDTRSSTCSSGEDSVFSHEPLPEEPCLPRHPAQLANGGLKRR

[1] = read-out: FGFR1 IC50, pre-incubated for 4 hours
[2] = FGFR1 IC50 (nM), pre-incubated for 4 hours
[3] = pre-incubated for 5 to 10 minutes
[4] = read-out: FGFR1 IC50, pre-incubated for 5 to 10 minutes
[5] = FGFR1 IC50 (nM), pre-incubated for 5 to 10 minutes

Chain of FGFR2 (P21802 22-821): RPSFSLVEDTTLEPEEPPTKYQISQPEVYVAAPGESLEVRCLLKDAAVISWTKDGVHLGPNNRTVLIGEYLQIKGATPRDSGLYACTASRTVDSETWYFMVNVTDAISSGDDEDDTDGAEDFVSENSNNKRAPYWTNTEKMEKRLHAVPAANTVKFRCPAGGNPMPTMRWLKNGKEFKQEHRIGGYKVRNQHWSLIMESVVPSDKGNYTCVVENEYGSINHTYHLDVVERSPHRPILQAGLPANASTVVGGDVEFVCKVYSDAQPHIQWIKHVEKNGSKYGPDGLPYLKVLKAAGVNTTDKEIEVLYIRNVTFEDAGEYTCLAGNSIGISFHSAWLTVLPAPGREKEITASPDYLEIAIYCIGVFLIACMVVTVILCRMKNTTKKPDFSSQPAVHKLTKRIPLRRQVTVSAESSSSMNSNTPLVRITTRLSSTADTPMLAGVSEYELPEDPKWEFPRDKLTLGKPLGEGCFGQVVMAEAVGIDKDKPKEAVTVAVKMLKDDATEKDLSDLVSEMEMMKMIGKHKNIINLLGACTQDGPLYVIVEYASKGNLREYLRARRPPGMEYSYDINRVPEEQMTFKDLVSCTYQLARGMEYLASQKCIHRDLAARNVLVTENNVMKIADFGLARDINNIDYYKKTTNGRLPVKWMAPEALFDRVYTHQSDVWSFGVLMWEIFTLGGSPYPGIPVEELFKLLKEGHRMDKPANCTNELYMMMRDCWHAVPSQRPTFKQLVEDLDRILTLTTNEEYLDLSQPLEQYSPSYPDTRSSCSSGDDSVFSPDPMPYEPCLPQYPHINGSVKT

Structure (SMILES)	IC50 (FGFR2; pre-incubated for 4 hours)	FGFR1/FGFR3 IC50 ratio (FGFR3 enzyme; pre-incubated for 4 hours)	FGFR4/FGFR3 IC50 ratio (FGFR3 enzyme; pre-incubated for 4 hours)	IC50 (FGFR3 enzyme; pre-incubated for 4 hours)	IC50 (FGFR4; pre-incubated for 4 hours)	IC50 (FGFR1; [2])	IC50 (FGFR2; [3])	other results
COc1cc(OC)c(F)c(N2Cc3cnc(-c4cc(N)ccc4C)cc3C3(CC3)C2=O)c1F [Example 1, 6′-(5-amino-2-methylphenyl)-2′-(2,6-difluoro-3,5-dimethoxyphenyl)-1′H-spiro[cyclopropane-1,4′-[2,7]naphthyridin]-3′(2′H)-one]	> 0.2 µM				0.03 to 0.2 µM		> 0.2 µM	IC50 (FGFR3 enzyme): > 0.2 µM; FGFR1/FGFR4 IC50 ratio (FGFR4; [3]): >25; FGFR2/FGFR4 IC50 ratio (FGFR4; [3]): >25; FGFR3/FGFR4 IC50 ratio (FGFR4; [3]): >50; FGFR1/FGFR4 IC50 ratio (FGFR4; pre-incubated for 4 hours): >25; FGFR2/FGFR4 IC50 ratio (FGFR4; pre-incubated for 4 hours): >25; FGFR3/FGFR4 IC50 ratio (FGFR4; pre-incubated for 4 hours): >25; IC50 (FGFR4; [3]): 0.03 to 0.2 µM; IC50 (FGFR1; [4]): > 200 nM; IC50 (FGFR1; [1]): > 200 nM
COc1cc(OC)c(F)c(N2Cc3cnc(-c4ccc(C5(C#N)CCC5)nc4)cc3N(CC3CC3)C2=O)c1F [Example 140, 1-(5-(1-(cyclopropylmethyl)-3-(2,6-difluoro-3,5-dimethoxyphenyl)-2-oxo-1,2,3,4-tetrahydropyrido[4,3-d]pyrimidin-7-yl)pyridin-2-yl)cyclobutanecarbonitrile]							< 0.01 µM	IC50 (FGFR3 enzyme; [3]): 0.01 to 0.03 µM; IC50 (FGFR4; [3]): 0.03 to 0.2 µM; IC50 (FGFR1; [5]): 30 to 200 nM
COc1cc(OC)c(F)c(N2Cc3cnc(-c4cn(Cc5cccnc5)nc4C)cc3C3(CC3)C2=O)c1F [Example 155, 2′-(2,6-difluoro-3,5-dimethoxyphenyl)-6′-(3-methyl-1-(pyridin-3-ylmethyl)-1H-pyrazol-4-yl)-1′H-spiro[cyclopropane-1,4′-[2,7]naphthyridin]-3′(2′H)-one]	0.03 to 0.2 µM	>5	>1	0.01 to 0.03 µM	0.03 to 0.2 µM	30 to 200 nM		
COc1cc(OC)c(F)c(N2Cc3cnc(-c4cn(C)nc4C)cc3N(c3ccc(C#N)cc3)C2=O)c1F [Example 44, 4-(3-(2,6-difluoro-3,5-dimethoxyphenyl)-7-(1,3-dimethyl-1H-pyrazol-4-yl)-2-oxo-3,4-dihydropyrido[4,3-d]pyrimidin-1(2H)-yl)benzonitrile]	0.01 to 0.03 µM	>10	>10	< 0.01 µM	0.03 to 0.2 µM	30 to 200 nM		
COc1cc(OC)c(F)c(N2Cc3cnc(-c4ccc(C5(C#N)CCC5)nc4)cc3N(c3ccccn3)C2=O)c1F [Example 137, 1-(5-(3-(2,6-difluoro-3,5-dimethoxyphenyl)-2-oxo-1-(pyridin-2-yl)-1,2,3,4-tetrahydropyrido[4,3-d]pyrimidin-7-yl)pyridin-2-yl)cyclobutanecarbonitrile]							0.01 to 0.03 µM	IC50 (FGFR3 enzyme; [3]): 0.01 to 0.03 µM; IC50 (FGFR4; [3]): 0.03 to 0.2 µM; IC50 (FGFR1; [5]): 30 to 200 nM

Now from value to molecule, other results behind:

IC50 (FGFR2; pre-incubated for 4 hours)	FGFR1/FGFR3 IC50 ratio (FGFR3 enzyme; pre-incubated for 4 hours)	FGFR4/FGFR3 IC50 ratio (FGFR3 enzyme; pre-incubated for 4 hours)	IC50 (FGFR3 enzyme; pre-incubated for 4 hours)	IC50 (FGFR4; pre-incubated for 4 hours)	IC50 (FGFR1; [2])	IC50 (FGFR2; [3])	Structure (SMILES)	other results
< 0.01 µM	>5	>5	< 0.01 µM	< 0.01 µM			COc1cc(OC)c(F)c(N2Cc3cnc(-c4cnn(CCCN5CCOCC5)c4)cc3C3(CC3)C2=O)c1F [Example 151, 2′-(2,6-difluoro-3,5-dimethoxyphenyl)-6′-(1-(3-morpholinopropyl)-1H-pyrazol-4-yl)-1′H-spiro[cyclopropane-1,4′-[2,7]naphthyridin]-3′(2′H)-one]	IC50 (FGFR1; [1]): < 10 nM
< 0.01 µM	>5	>1	< 0.01 µM	0.03 to 0.2 µM	30 to 200 nM		CCN1C(=O)N(c2c(F)c(OC)cc(OC)c2F)Cc2cnc(-c3cn(CCN4CCOCC4)nc3C)cc21 [Example 49, 3-(2,6-difluoro-3,5-dimethoxyphenyl)-1-ethyl-7-(3-methyl-1-(2-morpholinoethyl)-1H-pyrazol-4-yl)-3,4-dihydropyrido[4,3-d]pyrimidin-2(1H)-one]	
< 0.01 µM	>3	>5	< 0.01 µM	0.03 to 0.2 µM	10 to 30 nM		COc1cc(OC)c(F)c(N2Cc3cnc(-c4cn(C)nc4C)cc3N(c3ccc4[nH]ncc4c3)C2=O)c1F [Example 134, 3-(2,6-difluoro-3,5-dimethoxyphenyl)-7-(1,3-dimethyl-1H-pyrazol-4-yl)-1-(1H-indazol-5-yl)-3,4-dihydropyrido[4,3-d]pyrimidin-2(1H)-one]	
< 0.01 µM	>5	>5	< 0.01 µM	0.01 to 0.03 µM	10 to 30 nM		COc1cc(OC)c(F)c(N2Cc3cnc(-c4csc(N(C)C)n4)cc3C3(CC3)C2=O)c1F [Example 160, 2′-(2,6-difluoro-3,5-dimethoxyphenyl)-6′-(2-(dimethylamino)thiazol-4-yl)-1′H-spiro[cyclopropane-1,4′-[2,7]naphthyridin]-3′(2′H)-one]	
< 0.01 µM	>5	>5	< 0.01 µM	0.03 to 0.2 µM	30 to 200 nM		COc1cc(OC)c(F)c(N2Cc3cnc(-c4cn(C)nc4C)cc3N(Cc3cc(C(C)C)on3)C2=O)c1F [Example 93, 3-(2,6-difluoro-3,5-dimethoxyphenyl)-7-(1,3-dimethyl-1H-pyrazol-4-yl)-1-((5-isopropylisoxazol-3-yl)methyl)-3,4-dihydropyrido[4,3-d]pyrimidin-2(1H)-one]	
0.01 to 0.03 µM	>5	>1	< 0.01 µM	0.01 to 0.03 µM	30 to 200 nM		COc1cc(OC)c(F)c(N2Cc3cnc(-c4cn(CCC#N)nc4C)cc3C3(CC3)C2=O)c1F [Example 156, 3-(4-(2′-(2,6-difluoro-3,5-dimethoxyphenyl)-3′-oxo-2′,3′-dihydro-1′H-spiro[cyclopropane-1,4,-[2,7]naphthyridine]-6′-yl)-3-methyl-1H-pyrazol-1-yl)propanenitrile]	
< 0.01 µM			< 0.01 µM			< 0.01 µM	CCN1C(=O)N(c2c(F)c(OC)cc(OC)c2F)Cc2cnc(-c3cnn(C)c3)cc21 [Example 169, 3-(2,6-difluoro-3,5-dimethoxyphenyl)-1-ethyl-7-(1-methyl-1H-pyrazol-4-yl)-3,4-dihydropyrido[4,3-d]pyrimidin-2(1H)-one]	IC50 (FGFR3 enzyme; [3]): < 0.01 µM; IC50 (FGFR1; [4]): < 10 nM; IC50 (FGFR1; [1]): < 10 nM
